The target in data set [1] is T1, EG3 (SEQ ID NO: 12) ELIC-GlyR (EG) Cl- channel (Dickeya chrysanthemi, UniProt P0C7B7, INS163G).
T1 construct: expressed in transfected cells; host or cells: Xenopus laevis oocytes injected with construct DNA in the pAAV vector
Description: Two-electrode voltage clamp, amine agonist activation of the EG channel in Xenopus oocytes. Format: cell-based, Erwinia chrysanthemi / human. To be noted: for Hill slope / Hill coeff.: agonist dose response on EG channel. How it is done: (§1) For pH measurements, 10 mM MES was added. […] Non-linear regressions were performed using Prism software (Graphpad). […] (FIG. 2).

Data set [2] concerns CFA-induced inflammation of the hind paw. To be noted: for mechanical hypersensitivity, EG channel not activated: EG rats before cysteamine versus control group. How it is done: In one experiment, 8 rats were assigned to two groups to receive either EG expression plasmid or the control plasmid […] the EG insertion. […] Thereafter, inflammation was induced in the same hind paw by complete Freund's adjuvant (CFA) injection (50 μl). Hypersensitivity was measured using a Von Frey pain-testing device after CFA injection. This test measures the maximum force applied to the paw through a flexible thin wire before paw withdrawal. Note that this version of the channel design, EG3 (SEQ ID NO: 12), requires a small agonist molecule (propylamine or cysteamine) to open the Cl^− channels.
Rats were randomly assigned to two groups to receive a subcutaneous injection of 1 mg (in 200 μl) purified EG expression vector into the left hind paw or the control plasmid vector without the EG insertion in an identical fashion. […] After CFA injections, the rats were tested both before and after cysteamine administration to assess the specific analgesic effects from the expressed EG channels.
The Institutional Animal Care and Use Committee at the University of Pittsburgh approved all animal procedures used in the studies. Male Sprague-Dawley rats, weighing 220-250 g, were obtained from Harlan Laboratories, allowed to acclimate to the housing and experimental facilities, evaluated for baseline behavioral response to thermal and mechanical pain, and then subjected to inflammatory pain model and behavioral testing. The expression vectors, 1000 μg in a volume of 200 μl phosphate-buffered saline (PBS), were injected directly into the plantar of the left hind paw with a 27-gauge needle under brief 2.5% isoflurane anesthesia. One week after the vector injection, 50 μl of CFA (Sigma, St. Louis, Mo., USA) were injected into the same hind paw subcutaneously with a 27-gauge needle under brief isoflurane anesthesia, as described previously {Fraser, 2000 #180}.
Animals were placed above a grid floor inside a plastic divider. Thresholds to the mechanical pressures applied directly onto the plantar by a blunt metal filament of 100 mm in length and 0.38 mm in diameter were assessed using a custom-made von Frey apparatus. The apparatus uses a high precision load cell (100 g capacity and 0.01 g accuracy) interfaced with a PASPORT load cell amplifier (Model PS-2205, PASCO Scientific, Roseville, Calif.) for continuously measuring the forces applied to the plantar through the metal filament. The DataStudio software from PASCO Scientific was used to record the entire time course of the applied forces and the maximum force immediately before the paw withdrawal. The threshold values were determined as a mean of at least three separate measurements under each testing condition.
Both von Frey and plantar tests were conducted using the schedule as depicted in FIG. 3a. On each testing day after CFA injection, behavioral evaluations were repeated before and at least 15 min after cysteamine administration. Cysteamine (500 μl of 100 mM solution in PBS) was injected subcutaneously elsewhere on the body to prevent tissue damage from repeated injections.

For data set [3] the following is noted: prescription drug for cystinosis; cited from earlier work.
The test system of data set [4] is CFA-induced inflammation of the hind paw. Nature of the data set: Plantar (Hargreaves) test of thermal hypersensitivity after CFA-induced inflammation. It counts as in vivo, rat. As for the experimental part:
The plantar sensitivity to heat-induced pain was examined using a plantar algesia meter (Model 390G; IITC Life Science, Woodland Hills, Calif.; active intensity, 23%). Rats were placed inside a plastic divider on a constant-temperature glass plate and acclimated to the environment for at least 20 minutes before testing. A heat source was focused directly onto the plantar surface of the hind paw. Once activated, the apparatus applied a continuous heat stimulus to the plantar surface to evoke a distinctive reflex of paw withdrawal. The rats were examined with at least a five-minute interval between consecutive tests. Paw withdrawal latencies were recorded and averaged for each hind paw. A 22-second automatic cut-off time was set to prevent tissue damage from heating.

Data set [5] addresses T2, EGRAFY mutant (R91A, F188Y; SEQ ID NO: 15) (Dickeya chrysanthemi, UniProt P0C7B7, F187Y/INS163G/R91A).
T2 construct: expressed in transfected cells; host or cells: Xenopus laevis oocytes
Description: Two-electrode voltage clamp, amine agonist activation of the EGRAFY mutant in oocytes. It counts as cell-based, Erwinia chrysanthemi / human. As for the experimental part: as §1
(Two-electrode voltage clamp is typically applied to oocytes expressing channels or transporters.)

A further data set concerns the target EG channel (Dickeya chrysanthemi, UniProt P0C7B7, INS163G). How it is done:
Non-linear regressions were performed using Prism software (Graphpad).

In the next data set the test system is ELIC-GlyR chimeras. Nature of the data set: Cysteamine response of ELIC-GlyR chimera constructs in Xenopus oocytes. Format: cell-based, Erwinia chrysanthemi / human. The source says: The EG chimera was constructed by fusing the extracellular domain of ELIC with the transmembrane domain of the α1 subunit of human GlyR. Five constructs were made to test the importance of interface elements at the fusion junction (pre-TM1), the loop between transmembrane helices 2 and 3 (TM23), and C-terminus (Figure S1 a). In addition, the long cytoplasmic loop was removed to facilitate homogeneous expression (i.e., “VSR . . . KID” was replaced with “[…]”). All designed constructs expressed functional channels in Xenopus oocytes and were responsive to the agonist cysteamine. The constructs mostresponsive to cysteamine, EG and EGd (Figure S1 b), included a native GlyR TM23 loop and an ELIC C-terminus (Figure S1). The fusion junction had less effect on cysteamine response (compare EG and EGd).

Read-outs that look alike come from different tables or passages of the source.

T2 sequence (P0C7B7 other isoform, or with tags, fused parts or gaps R91A/INS163G/F187Y): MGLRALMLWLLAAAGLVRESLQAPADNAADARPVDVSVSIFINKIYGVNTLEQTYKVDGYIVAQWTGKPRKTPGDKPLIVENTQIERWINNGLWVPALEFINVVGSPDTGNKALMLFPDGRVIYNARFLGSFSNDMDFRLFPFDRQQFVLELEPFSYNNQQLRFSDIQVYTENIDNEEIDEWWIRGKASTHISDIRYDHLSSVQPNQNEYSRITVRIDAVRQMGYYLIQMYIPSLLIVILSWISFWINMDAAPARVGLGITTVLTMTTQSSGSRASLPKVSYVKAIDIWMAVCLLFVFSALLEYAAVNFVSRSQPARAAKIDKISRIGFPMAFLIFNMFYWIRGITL

The term EC50 denotes the midpoint of the concentration-response curve. On to `NCCS` [cysteamine], for which, in data set [1], the response was half-maximal at 960 ± 120 µM (EC50) and the “Hill slope / Hill coeff.” value was determined as 1.1±0.1. Also, in data set [2] (control plasmid rats (no EG), after CFA, listed as Cysteamine), the “mechanical hypersensitivity / pain scores after cysteamine administration” value was “no analgesia”. For the same molecule, in data set [3], the “safety in clinical use” value was “safe with no psychoactive effects”. Besides, in data set [4] (control plasmid rats (no EG), after CFA), the “thermal hypersensitivity after cysteamine administration” value is listed as “not inherently an analgesic”. In data set [4] (rats expressing EG, after CFA), the “thermal hypersensitivity after cysteamine administration” value is recorded as “significantly attenuated”.
`CCCN` [propylamine]: in data set [1], the EC50 came out at 740 ± 110 µM and the “Hill slope / Hill coeff.” value was 0.5±0.04. Further, the “increase in potency in the EGRAFY mutant as compared to the EG channel” value in data set [5] is ~3 orders of magnitude. Also, in data set [5] (EGRAFY mutant, n=6), the Hill coeff. amounted to 0.98±0.07.

B1: EG channel: ELIC extracellular domain fused to human GlyR α1 transmembrane domain; amine-gated Cl- channel, delivered as expression plasmid in vivo (protein)
chain: MGLRALMLWLLAAAGLVRESLQAPADNAADARPVDVSVSIFINKIYGVNTLEQTYKVDGYIVAQWTGKPRKTPGDKPLIVENTQIERWINNGLWVPALEFINVVGSPDTGNKRLMLFPDGRVIYNARFLGSFSNDMDFRLFPFDRQQFVLELEPFSYNNQQLRFSDIQVYTENIDNEEIDEWWIRGKASTHISDIRYDHLSSVQPNQNEFSRITVRIDAVRQMGYYLIQMYIPSLLIVILSWISFWINMDAAPARVGLGITTVLTMTTQSSGSRASLPKVSYVKAIDIWMAVCLLFVFSALLEYAAVNFVSRSQPARAAKIDKISRIGFPMAFLIFNMFYWIRGITL
modifications: Engineered Chloride Channel Receptor
notes: ELIC extracellular domain fused to human GlyR α1 transmembrane domain; amine-gated Cl- channel, delivered as expression plasmid in vivo
Turning to B1, the “shift in reversal potential upon replacing Na+ with choline” value in the data set with EG channel is “no significant shift”. Also, the “shift in reversal potential upon replacing Cl- with gluconate” value in the data set with EG channel (130 mM external solution) amounted to 50 mV. In addition, the “cysteamine response of the construct” value in the data set with ELIC-GlyR chimeras is reported as “mostresponsive”. Moreover, the “mechanical hypersensitivity, EG channel not activated” value was “did not produce measurable changes” in data set [2] (after CFA); “no measureable effects” in data set [2] (after CFA, listed as EG); “little measurable changes” in data set [2] (after CFA, listed as EG channels). In data set [2] (rat, in vivo), the “basal mechanical and thermal thresholds” value is “neither EG nor the control plasmids caused measureable changes”. Also, in data set [4] (EG rats before cysteamine versus control group), the “hypersensitivity to heat-induced pain, EG channel not activated” value is recorded as “partially alleviated”. Besides, the “latency to paw withdrawal, EG injection compared to the control” value in data set [4] (after CFA, EG n=4, control n=5) is “significant attenuation of thermal hypersensitivity”.
